Measurements as given in patent US7393637B2, “Methods for detecting cancer and monitoring cancer progression” (University of Manitoba, priority 2003, dated 2008).

Assays:
Assay type in all cases: cell-based, human
[1] = test system: U251 cells; experiment: Determination of mitochondrial membrane potential (TMRM staining) in transfected U251 cells; conditions: U251 cells co-transfected with GFP
Procedure: U251 cells were grown in chamber slides and were co-transfected with pEGFP N1 (Clontech) and pCDNA3, pCDNA3-BNIP3, pCDNA3-BNIP3ΔTM, and pCDNA3-356delA BNIP3 using Geneporter™ transfection reagent (GTS) as per the manufacturer's instructions. After 16 h of incubation, the slides were washed twice with 1×Hepes-buffered saline solution (HBSS) and tetramethylrohdamine (TMRM; Molecular Probes) was added to the slides at […] final concentration and incubated in the dark at RT for 10 min. The slides were then viewed on an Olympus IX70 inverted confocal laser microscope using Fluoview 2.0 software.

[2] = test system: glioblastoma cell lines U87 and U251; experiment: Cell death after transfection of glioblastoma cell lines (chromatin condensation); conditions: U87 and U251 cells transfected, normoxia
Procedure: (§1) Human glioblastoma cell lines U251 and U87 (obtained from Dr. V. W. Yong, University of Calgary and Dr. C. Hao, University of Alberta, respectively) were cultured in Dulbecco's modified essential medium (DMEM), supplemented with 10% fetal bovine serum, 2 mM L-glutamine, 1 mM MEM sodium pyruvate, 0.3% glucose and 100 units/mI penicillin/streptomycin. The cell lines were grown in a humidified incubator in the presence of 5% CO2 at 37° C. Cells were maintained under hypoxic conditions (less than 1% oxygen) at 37° C. within a hypoxic chamber (Forma Scientific) filled with 5% CO2 balanced with N2. Transfection experiments were carried out with the U87 and U251 cell lines. The cells were plated 48 hours prior to transfection to achieve approximately 40% confluence. The U87 cell line was transfected using Geneporter™ transfection reagent (GTS) and the U251 cell line using Effectene™ transfection reagent (Qiagen) as per the manufacturer's instructions.
After transfection of U87 and U251 cell lines with 2 μg of pCDNA3, pCDNA3-BNIP3, pCDNA3-BNIP3ΔTM, or pCDNA3-356delA BNIP3, the cells were incubated for 24 and 48 hours, then trypsinized and centrifuged and then resuspended in 2 ml of media. A 200 μl aliquot was placed in a ThermoShandon cytospin at 1000 RPM for 5 minutes with medium-low acceleration. The slides obtained from the cytospin were immediately fixed with 3.7% formaldelyde in 1×PBS at RT for one hour. Following three washes with 1' PBS (0.1% NP40), slides were incubated with primary BNIP3 antibody (1:700 dilution in […], 1×PBS, 0.1% NP40) for 1 hour at RT. The slides were then washed three times in PBS (0.1% NP40) and incubated with goat anti-rabbit fluorescein isothiocyanate (FITC)-conjugated secondary antibody (Sigma) for 1 hour. […] 200 or more cells were counted per sample to assess DNA condensation. Fluorescence was visualized and captured using an Olympus BX51 fluorescent microscope with a Photometrics Cool Snap CF camera and an Olympus IX70 inverted confocal laser microscope using Fluoview 2.0 software.

[3] = test system: U87 cells; experiment: Antisense experiment: hypoxia-induced cell death in U87 cells (acridine orange staining); conditions: hypoxia 72 hours
Procedure: U251 and U87 cells were plated on 100 mm plates and grown to approximately 80% confluence, then incubated in hypoxic conditions for a time course of 0, 24, 48, 72 and 96 hours. Following incubation under hypoxia, the cells were trypsinized from the plates and centrifuged to collect a cell pellet. Cells were resuspended in 100 μl of media and 4 μl of acridine orange (100 μg/ml) and ethidium bromide (100 μg/ml) were added. A 10 μl aliquot was removed, placed on a microscope slide and a coverslip was applied. Using a fluorescein filter, the percentage of dead cells was determined by counting the number of DNA condensation nuclei. At least 200 cells were counted per sample as previously described (5).
Antisense oligonucleotide (5′-[…]-3′ (SEQ ID NO:13)) (Sigma Genesys, Oakville, ON) and sense oligonucleotide (5′-[…]-3′ (SEQ ID NO:14)) were complimentary to bases −1 to +19 of the human Bnip3 gene. Random sequence oligonucleotide (5′-GCAGTCAGCGACGTCGMGC-3′ (SEQ ID NO:15)) contained the same bases in a scrambled sequence. Oligonucleotides were phosphorothioate-modified to prevent degradation. […] Cell death was determined via acridine orange staining or cells were lysed and protein extracts were analyzed for BNIP3 expression as described above.

[4] = test system: BNIP3; experiment: Antisense experiment: BNIP3 expression in U87 cells under hypoxia (Western blot); conditions: hypoxia 72 hrs
Procedure: U251 cells were lysed for total protein or nuclear proteins as previously published (5). The lysates ([…]) were separated by SDS-PAGE and transferred to nitrocellulose membranes. Membranes were blocked in 5% skim milk and western blotted with monoclonal antibodies against BNIP3 (1:1000) (5), pro-caspase 8 antibodies (1:1000, Upstate Biotech.), HDAC1 antibodies (1:1000, Upstate Biotech),) or β-actin (1:50, Sigma). The western blots were visualized with chemiluminescence (NEN-Dupont).
Antisense oligonucleotide (5′-[…]-3′ (SEQ ID NO:13)) (Sigma Genesys, Oakville, ON) and sense oligonucleotide (5′-[…]-3′ (SEQ ID NO:14)) were complimentary to bases −1 to +19 of the human Bnip3 gene. Random sequence oligonucleotide (5′-GCAGTCAGCGACGTCGMGC-3′ (SEQ ID NO:15)) contained the same bases in a scrambled sequence. Oligonucleotides were phosphorothioate-modified to prevent degradation. Oligonucleotides were diluted in Opti-MEM (Gibco BRL), mixed with oligofectamine (Invitrogen) and incubated with U87 cells for 4 hours then hypoxic media was added and cells were further incubated under hypoxia for 72 hours. Cell death was determined via acridine orange staining or cells were lysed and protein extracts were analyzed for BNIP3 expression as described above.

[5] = test system: U251 cells; experiment: Hypoxia-induced cell death in transfected U251 cells (β-galactosidase viability assay)
Procedure: as §1
U87 and U251 cells were co-transfected in 100 mm culture plates with 2 μg of pcDNA3, pcDNA3-BNIP3, pcDNA3-BNIP3ΔTM, pcDNA3-356delA BNIP3 plasmid DNA and 0.5 μg of β-galactosidase reporter plasmid DNA. […] The percentage of dead cells was calculated by assessing the number of rounded, condensed, blue-staining cells in the total population of flat, blue-staining cells. At least 200 cells were counted for each experiment.

Row | Molecule | TMRM staining (mitochondrial membrane potential, Δψm) [1] | induction of cell death [2] | hypoxia-induced cell death [3] | BNIP3 expression [4] | cell death ([5]; U251 cells transfected with cDNA, hypoxic conditions 72 hours, vector alone 40%, normoxia 10%) [%] | reduction of cell death versus vector alone ([5]; U251 cells, hypoxic conditions) [%]
1 | wt BNIP3: wild-type Bcl-2 Nineteen Kilodalton Interacting Protein 3 (SEQ ID NO:2), expressed from transfected cDNA | TMRM staining decreased | inducing cell death | – | – | – | –
2 | 235—236insA BNIP3: truncated BNIP3, frame shift in the PEST domain by insertion of A at nucleotide 236 (SEQ ID NO:5, protein SEQ ID NO:6) | – | failed to induce cell death | – | – | – | –
3 | 5′-GCGCTCCGTTCTGCGACATG-3′ (SEQ ID NO:13) (listed as DNA, chemistry not given here) [antisense oligonucleotides against BNIP3, antisense oligonucleotide to bases −1 to +19 of the human Bnip3 gene] | – | – | inhibited hypoxia-induced cell death | effectively blocks BNIP3 expression | – | –
4 | 356delA BNIP3: truncated BNIP3, frame shift in the CD domain by deletion of A at nucleotide 356 (SEQ ID NO:3, protein SEQ ID NO:4) (protein, listed as Homo sapiens) MSQNGAPGMQEESLQGSWVELHFSNNGNGGSVPASVSIYNGDMEKILLDAQHESGRSSSKSSHCDSPPRSQTPQDTNRASETDTHSIGEKNSSQSEEDDIERRKEVESILKKNSDWIWVGQVGRKIFPPRSSSLNTRSARPPSA | failed to change TMRM fluorescence | fails to induce cell death | – | – | 20 | 50
